Laboratory results reported in PubChem BioAssay (NCI).
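Interpolation was linear, between the two tested concentrations surrounding the appropriate level; five concentrations were tested over 48 hours in 96-well plates. GI50 = concentration required for 50% inhibition of growth. TGI is the concentration that stops growth completely.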

Experiments:
Experiment in all cases: inhibition of tumour cell growth, NCI panel, 48 h
HS 578T breast = test system: HS 578T breast
NCI/ADR-RES ovarian = test system: NCI/ADR-RES ovarian
A498 renal = test system: A498 renal
HCT-15 colon = test system: HCT-15 colon
A549 NSCLC = test system: A549 NSCLC
NCI-H23 lung = test system: NCI-H23 lung
MOLT-4 leukemia = test system: MOLT-4 leukemia
OVCAR-4 ovarian = test system: OVCAR-4 ovarian
DU-145 prostate = test system: DU-145 prostate
SK-MEL-28 melanoma = test system: SK-MEL-28 melanoma
EKVX NSCLC = test system: EKVX NSCLC
UO-31 renal = test system: UO-31 renal
HT29 colon = test system: HT29 colon
MALME-3M melanoma = test system: MALME-3M melanoma
NCI-H522 lung = test system: NCI-H522 lung
HL-60(TB) leukemia = test system: HL-60(TB) leukemia
SK-MEL-2 melanoma = test system: SK-MEL-2 melanoma
SN12C renal = test system: SN12C renal
CCRF-CEM leukemia = test system: CCRF-CEM leukemia
COLO 205 colon = test system: COLO 205 colon
K-562 leukemia = test system: K-562 leukemia
SW-620 colon = test system: SW-620 colon
OVCAR-5 ovarian = test system: OVCAR-5 ovarian
UACC-257 melanoma = test system: UACC-257 melanoma
NCI-H460 lung = test system: NCI-H460 lung
PC-3 prostate = test system: PC-3 prostate
HCC-2998 colon = test system: HCC-2998 colon
MDA-MB-435 = test system: MDA-MB-435
OVCAR-3 ovarian = test system: OVCAR-3 ovarian
ACHN renal = test system: ACHN renal
T-47D breast = test system: T-47D breast
786-0 renal = test system: 786-0 renal
MDA-MB-231 breast = test system: MDA-MB-231 breast
HCT-116 colon = test system: HCT-116 colon
RPMI-8226 leukemia = test system: RPMI-8226 leukemia
SK-OV-3 ovarian = test system: SK-OV-3 ovarian
IGROV1 ovarian = test system: IGROV1 ovarian
HOP-92 NSCLC = test system: HOP-92 NSCLC
MCF7 breast = test system: MCF7 breast
RXF 393 renal = test system: RXF 393 renal
SF-268 CNS = test system: SF-268 CNS
KM12 colon = test system: KM12 colon
SF-295 CNS = test system: SF-295 CNS
SR leukemia = test system: SR leukemia
TK-10 renal = test system: TK-10 renal
HOP-62 NSCLC = test system: HOP-62 NSCLC
U251 CNS = test system: U251 CNS
CAKI-1 renal = test system: CAKI-1 renal
M14 melanoma = test system: M14 melanoma
SK-MEL-5 melanoma = test system: SK-MEL-5 melanoma
SNB-19 CNS = test system: SNB-19 CNS
LOX IMVI melanoma = test system: LOX IMVI melanoma
SNB-75 CNS = test system: SNB-75 CNS
BT-549 breast = test system: BT-549 breast
SF-539 CNS = test system: SF-539 CNS
OVCAR-8 ovarian = test system: OVCAR-8 ovarian
NCI-H226 lung = test system: NCI-H226 lung
UACC-62 melanoma = test system: UACC-62 melanoma

Work on C=C(C)[C@@H]1CC[C@]2(C(=O)OCCOCCOCC[P+](c3ccccc3)(c3ccccc3)c3ccccc3)CC[C@]3(C)[C@H](CC[C@@H]4[C@@]5(C)CC[C@H](OC(=O)C(Cl)Cl)C(C)(C)[C@@H]5CC[C@]43C)[C@@H]12 yielded a GI50 (HS 578T breast) of 0.317 µM, a TGI (HS 578T breast) of 1.88 µM and a GI50 (NCI/ADR-RES ovarian) of 1.54 µM. It also gave a TGI (NCI/ADR-RES ovarian) of 9 µM, a GI50 (A498 renal) of 0.225 µM and a TGI (A498 renal) of 0.734 µM.
FC(F)(F)c1cc(Nc2ccc3cc(OCCCN4CCOCC4)ccc3n2)ccc1Cl was tested, and the GI50 (HS 578T breast) was 1.68 µM, the TGI (HS 578T breast) was 4.36 µM and the GI50 (HCT-15 colon) was 1.28 µM. For the same molecule, the TGI (HCT-15 colon) was 3.08 µM, the GI50 (A549 NSCLC) was 1.93 µM and the TGI (A549 NSCLC) was 4.3 µM. The GI50 (NCI-H23 lung) was 1.94 µM, the TGI (NCI-H23 lung) was 4.8 µM and the GI50 (MOLT-4 leukemia) was 2.16 µM. For the same molecule, the TGI (MOLT-4 leukemia) was 6.82 µM, the GI50 (OVCAR-4 ovarian) was 2.54 µM and the TGI (OVCAR-4 ovarian) was 12.8 µM. The GI50 (DU-145 prostate) was 3.17 µM, the TGI (DU-145 prostate) was 13.3 µM and the GI50 (SK-MEL-28 melanoma) was 1.59 µM. The TGI (SK-MEL-28 melanoma) was 3.39 µM, the GI50 (EKVX NSCLC) was 2.3 µM and the TGI (EKVX NSCLC) was 6.21 µM. The GI50 (UO-31 renal) was 1.55 µM, the TGI (UO-31 renal) was 3.27 µM and the GI50 (HT29 colon) was 1.59 µM. The TGI (HT29 colon) was 3.16 µM, the GI50 (MALME-3M melanoma) was 1.67 µM and the TGI (MALME-3M melanoma) was 4.34 µM. The GI50 (NCI-H522 lung) was 2.04 µM, the TGI (NCI-H522 lung) was 3.82 µM and the GI50 (HL-60(TB) leukemia) was 2.24 µM. The TGI (HL-60(TB) leukemia) was 6.49 µM, the GI50 (SK-MEL-2 melanoma) was 1.99 µM and the TGI (SK-MEL-2 melanoma) was 3.88 µM. The GI50 (SN12C renal) was 2.96 µM, the TGI (SN12C renal) was 12.9 µM and the GI50 (NCI/ADR-RES ovarian) was 2.69 µM. The TGI (NCI/ADR-RES ovarian) was 18 µM, the GI50 (CCRF-CEM leukemia) was 2.03 µM and the TGI (CCRF-CEM leukemia) was 9.18 µM. For the same molecule, the GI50 (COLO 205 colon) was 1.74 µM, the TGI (COLO 205 colon) was 3.49 µM and the GI50 (K-562 leukemia) was 1.04 µM. It also gave a TGI (K-562 leukemia) of 3.83 µM, a GI50 (SW-620 colon) of 1.85 µM and a TGI (SW-620 colon) of 3.6 µM. It also gave a GI50 (OVCAR-5 ovarian) of 2.21 µM, a TGI (OVCAR-5 ovarian) of 5.84 µM and a GI50 (UACC-257 melanoma) of 1.53 µM. For the same molecule, the TGI (UACC-257 melanoma) was 3.32 µM, the GI50 (NCI-H460 lung) was 1.72 µM and the TGI (NCI-H460 lung) was 3.42 µM. The GI50 (PC-3 prostate) was 1.09 µM, the TGI (PC-3 prostate) was 2.68 µM and the GI50 (HCC-2998 colon) was 1.74 µM. The TGI (HCC-2998 colon) was 3.38 µM, the GI50 (MDA-MB-435) was 1.75 µM and the TGI (MDA-MB-435) was 3.61 µM. For the same molecule, the GI50 (OVCAR-3 ovarian) was 1.93 µM, the TGI (OVCAR-3 ovarian) was 4.47 µM and the GI50 (ACHN renal) was 2.05 µM. It also gave a TGI (ACHN renal) of 4.86 µM, a GI50 (T-47D breast) of 2.51 µM and a TGI (T-47D breast) of 7.51 µM. It also gave a GI50 (786-0 renal) of 1.3 µM, a TGI (786-0 renal) of 2.81 µM and a GI50 (MDA-MB-231 breast) of 1.83 µM. The TGI (MDA-MB-231 breast) was 4.2 µM, the GI50 (HCT-116 colon) was 1.65 µM and the TGI (HCT-116 colon) was 3.14 µM. It also gave a GI50 (RPMI-8226 leukemia) of 1.11 µM, a TGI (RPMI-8226 leukemia) of 6.61 µM and a GI50 (SK-OV-3 ovarian) of 2.21 µM. The TGI (SK-OV-3 ovarian) was 4.87 µM, the GI50 (IGROV1 ovarian) was 2.62 µM and the TGI (IGROV1 ovarian) was 7.49 µM. It also gave a GI50 (HOP-92 NSCLC) of 1.15 µM, a TGI (HOP-92 NSCLC) of 2.97 µM and a GI50 (MCF7 breast) of 1.51 µM. For the same molecule, the TGI (MCF7 breast) was 3.56 µM, the GI50 (RXF 393 renal) was 1.39 µM and the TGI (RXF 393 renal) was 3.22 µM. It also gave a GI50 (SF-268 CNS) of 1.9 µM, a TGI (SF-268 CNS) of 4.71 µM and a GI50 (KM12 colon) of 1.92 µM. It also gave a TGI (KM12 colon) of 4.37 µM, a GI50 (SF-295 CNS) of 1.37 µM and a TGI (SF-295 CNS) of 3.17 µM. It also gave a GI50 (SR leukemia) of 1.4 µM, a TGI (SR leukemia) of 4.73 µM and a GI50 (TK-10 renal) of 2.64 µM. For the same molecule, the TGI (TK-10 renal) was 5.86 µM, the GI50 (HOP-62 NSCLC) was 1.87 µM and the TGI (HOP-62 NSCLC) was 3.63 µM. It also gave a GI50 (U251 CNS) of 1.27 µM, a TGI (U251 CNS) of 2.75 µM and a GI50 (CAKI-1 renal) of 1.66 µM. It also gave a TGI (CAKI-1 renal) of 3.44 µM, a GI50 (M14 melanoma) of 1.71 µM and a TGI (M14 melanoma) of 3.66 µM. It also gave a GI50 (SK-MEL-5 melanoma) of 1.64 µM, a TGI (SK-MEL-5 melanoma) of 3.16 µM and a GI50 (SNB-19 CNS) of 1.84 µM. The TGI (SNB-19 CNS) was 3.79 µM, the GI50 (LOX IMVI melanoma) was 1.53 µM and the TGI (LOX IMVI melanoma) was 2.99 µM. It also gave a GI50 (SNB-75 CNS) of 1.61 µM, a TGI (SNB-75 CNS) of 3.92 µM and a GI50 (BT-549 breast) of 1.74 µM. For the same molecule, the TGI (BT-549 breast) was 4.07 µM, the GI50 (SF-539 CNS) was 1.75 µM and the TGI (SF-539 CNS) was 3.73 µM. For the same molecule, the GI50 (OVCAR-8 ovarian) was 2.87 µM, the TGI (OVCAR-8 ovarian) was 10 µM and the GI50 (A498 renal) was 1.47 µM. For the same molecule, the TGI (A498 renal) was 6.27 µM, the GI50 (NCI-H226 lung) was 2.56 µM and the TGI (NCI-H226 lung) was 11.7 µM.
For CC(=O)OCC1OC(n2nc(Cc3ccccc3)c(=S)[nH]c2=S)C(OC(C)=O)C(OC(C)=O)C1OC(C)=O (centres undefined), the TGI (HS 578T breast) was 45.4 µM, the TGI (HCT-15 colon) was 40.5 µM and the TGI (A549 NSCLC) was > 100 µM. The TGI (NCI-H23 lung) was 44.6 µM, the TGI (MOLT-4 leukemia) was > 100 µM and the TGI (OVCAR-4 ovarian) was 39.6 µM. For the same molecule, the TGI (DU-145 prostate) was 64.3 µM, the TGI (SK-MEL-28 melanoma) was > 100 µM and the TGI (UO-31 renal) was 51.7 µM. The TGI (HT29 colon) was > 100 µM, the TGI (MALME-3M melanoma) was 83.9 µM and the TGI (NCI-H522 lung) was 47.5 µM. It also gave a TGI (HL-60(TB) leukemia) of 27.2 µM, a TGI (SK-MEL-2 melanoma) of 35.1 µM and a TGI (SN12C renal) of 55.3 µM. The TGI (NCI/ADR-RES ovarian) was > 100 µM, the TGI (UACC-62 melanoma) was 35.5 µM and the TGI (COLO 205 colon) was > 100 µM. The TGI (K-562 leukemia) was > 100 µM, the TGI (SW-620 colon) was > 100 µM and the TGI (OVCAR-5 ovarian) was > 100 µM. The TGI (UACC-257 melanoma) was 37.8 µM, the TGI (NCI-H460 lung) was > 100 µM and the TGI (PC-3 prostate) was > 100 µM. The TGI (MDA-MB-435) was 36.7 µM, the TGI (OVCAR-3 ovarian) was 41.2 µM and the TGI (ACHN renal) was > 100 µM. The TGI (T-47D breast) was 60.2 µM, the TGI (786-0 renal) was > 100 µM and the TGI (MDA-MB-231 breast) was 30.6 µM. The TGI (HCT-116 colon) was 47.1 µM, the TGI (SK-OV-3 ovarian) was > 100 µM and the TGI (IGROV1 ovarian) was 45.7 µM. It also gave a TGI (HOP-92 NSCLC) of 40.6 µM, a TGI (MCF7 breast) of 72.7 µM and a TGI (RXF 393 renal) of 44.6 µM. For the same molecule, the TGI (SF-268 CNS) was 52.2 µM, the TGI (KM12 colon) was 40.2 µM and the TGI (SF-295 CNS) was > 100 µM. For the same molecule, the TGI (SR leukemia) was > 100 µM, the TGI (TK-10 renal) was > 100 µM and the TGI (HOP-62 NSCLC) was 51.4 µM. The TGI (U251 CNS) was 73.4 µM, the TGI (CAKI-1 renal) was > 100 µM and the TGI (M14 melanoma) was 38.1 µM. For the same molecule, the TGI (SK-MEL-5 melanoma) was > 100 µM, the TGI (SNB-19 CNS) was 78.8 µM and the TGI (LOX IMVI melanoma) was 41.9 µM. For the same molecule, the TGI (SNB-75 CNS) was 39.8 µM, the TGI (BT-549 breast) was 41.7 µM and the TGI (SF-539 CNS) was 67.8 µM. The TGI (OVCAR-8 ovarian) was 58.4 µM, the TGI (A498 renal) was > 100 µM and the TGI (NCI-H226 lung) was > 100 µM.
